Values after ≈ are worked out from the molar mass of the structure shown.
Assays:
Test in all cases: Broth microdilution MIC, Example 7 (NCL812 and analogues)
MRSA = type: cell-based, Staphylococcus aureus; conditions: for activity against MRSA among analogues: MIC testing, two MRSA strains
Protocol: (§1) Minimum inhibitory concentrations (μg/ml) were determined using the broth microdilution method recommended by the Clinical and Laboratory Standards Institute (CLSI). MIC breakpoints were determined by visual assessment and then confirmed using an ELISA plate reader, measuring absorbance levels at 600 nm. Bacterial growth (turbidity) in the wells with antimicrobial was compared with the amount of growth (turbidity) in the growth-control well (containing no antimicrobial). All isolates were tested in duplicate, if there was a difference of greater than one two-fold dilution in the results, the test was repeated a third time. The purity of the isolates was closely monitored during testing by subculturing the prepared bacterial inoculum onto SBA (sheep blood agar). […] The MIC50, MIC20 and MIC range (minimum and maximum) were calculated for each of the bacterial groups.
(§2) MICs were determined against two MRSA strains, two VRE strains and one strain each of E. coli and Pseudomonas aeruginosa.

Escherichia coli = type: cell-based; conditions: 24 hours
VRE = type: cell-based, Enterococcus spp.; conditions: for activity against VRE among analogues: MIC testing, two VRE strains
Protocol: as §1, §2

Pseudomonas aeruginosa = type: cell-based; conditions: 24 hours
[1] = isolate MRSA 1, 1st and 2nd replicate rows
[2] = isolate MRSA 2, 1st and 2nd replicate rows
[3] = isolate VRE 1, 1st and 2nd replicate rows
[4] = isolate VRE 2, 1st and 2nd replicate rows
[5] = MRSA 1, duplicate lines per compound
[6] = MRSA 2, duplicate lines per compound
[7] = E. coli, duplicate lines per compound
[8] = VRE 1, duplicate lines per compound
[9] = VRE 2, duplicate lines per compound
[10] = P. aeruginosa, duplicate lines per compound

| Structure (SMILES) | MIC (μg/ml) at 24 hours, MRSA 1 (MRSA; [1]) | MIC (μg/ml) at 24 hours, MRSA 2 (MRSA; [2]) | MIC (μg/ml) at 24 hours, E. coli (Escherichia coli; 1st and 2nd replicate rows) | MIC (μg/ml) at 24 hours, VRE 1 (VRE; [3]) | MIC (μg/ml) at 24 hours, VRE 2 (VRE; [4]) | MIC (μg/ml) at 24 hours, P. aeruginosa (Pseudomonas aeruginosa; 1st and 2nd replicate rows) | activity against VRE among analogues (VRE) | activity against MRSA among analogues (MRSA) | MIC (μg/ml) at 24 hours, MRSA 1 (MRSA; [5]) | MIC (μg/ml) at 24 hours, MRSA 2 (MRSA; [6]) | MIC (μg/ml) at 24 hours, E. coli (Escherichia coli; [7]) | MIC (μg/ml) at 24 hours, VRE 1 (VRE; [8]) | MIC (μg/ml) at 24 hours, VRE 2 (VRE; [9]) | MIC (μg/ml) at 24 hours, P. aeruginosa (Pseudomonas aeruginosa; [10]) |
| --- | --- | --- | --- | --- | --- | --- | --- | --- | --- | --- | --- | --- | --- | --- |
| Cc1cccc(/C=N/NC(=N)N)c1.Cl [NCL046] | >128 µg/mL | >128 µg/mL | >128 µg/mL | >128 µg/mL | >128 µg/mL | >128 µg/mL | – | – | – | – | – | – | – | – |
| NC(=O)N/N=C/c1ccccc1Cl [NCL047] | >128 µg/mL | >128 µg/mL | >128 µg/mL | >128 µg/mL | >128 µg/mL | >128 µg/mL | – | – | – | – | – | – | – | – |
| NC(=O)N/N=C/c1ccccc1F [NCL048] | >128 µg/mL | >128 µg/mL | >128 µg/mL | >128 µg/mL | >128 µg/mL | >128 µg/mL | – | – | – | – | – | – | – | – |
| N#Cc1ccc(/C=N/NC(N)=O)cc1 [NCL049] | >128 µg/mL | >128 µg/mL | >128 µg/mL | >128 µg/mL | >128 µg/mL | >128 µg/mL | – | – | – | – | – | – | – | – |
| N#Cc1ccccc1/C=N/NC(N)=O [NCL050] | >128 µg/mL | >128 µg/mL | >128 µg/mL | >128 µg/mL | >128 µg/mL | >128 µg/mL | – | – | – | – | – | – | – | – |
| N#Cc1cccc(/C=N/NC(N)=O)c1 [NCL051] | >128 µg/mL | >128 µg/mL | >128 µg/mL | >128 µg/mL | >128 µg/mL | >128 µg/mL | – | – | – | – | – | – | – | – |
| NC(=O)N/N=C/c1cccc(Cl)c1 [NCL055] | >128 µg/mL | >128 µg/mL | >128 µg/mL | >128 µg/mL | >128 µg/mL | >128 µg/mL | – | – | – | – | – | – | – | – |
| NC(=O)N/N=C/c1ccc(F)cc1 [NCL056] | >128 µg/mL | >128 µg/mL | >128 µg/mL | >128 µg/mL | >128 µg/mL | >128 µg/mL | – | – | – | – | – | – | – | – |
| NC(=O)N/N=C/c1cccc(F)c1 [NCL057] | >128 µg/mL | >128 µg/mL | >128 µg/mL | >128 µg/mL | >128 µg/mL | >128 µg/mL | – | – | – | – | – | – | – | – |
| COc1ccc(/C=N/NC(N)=O)cc1 [NCL058] | >128 µg/mL | >128 µg/mL | >128 µg/mL | >128 µg/mL | >128 µg/mL | >128 µg/mL | – | – | – | – | – | – | – | – |
| COc1cccc(/C=N/NC(N)=O)c1 [NCL059] | >128 µg/mL | >128 µg/mL | >128 µg/mL | >128 µg/mL | >128 µg/mL | >128 µg/mL | – | – | – | – | – | – | – | – |
| NC(=O)N/N=C/c1ccccc1C(F)(F)F [NCL060] | >128 µg/mL | >128 µg/mL | >128 µg/mL | >128 µg/mL | >128 µg/mL | >128 µg/mL | – | – | – | – | – | – | – | – |
| CC(=NNC(=N)NN=C(C)c1ccc(C(F)(F)F)cc1)c1ccc(C(F)(F)F)cc1.Cl [NCL061] | >128 µg/mL | >128 µg/mL | >128 µg/mL | >128 µg/mL | 8 µg/mL | >128 µg/mL | greatest activity | – | – | – | – | – | – | – |
| FC(F)(F)c1ccc(C=NNC(=S)NN=Cc2ccc(C(F)(F)F)cc2)cc1 [NCL063] | >128 µg/mL | >128 µg/mL | >128 µg/mL | >128 µg/mL | >128 µg/mL | >128 µg/mL | – | – | – | – | – | – | – | – |
| N#Cc1ccccc1C=NNC(=S)NN=Cc1ccccc1C#N [NCL064] | >128 µg/mL | >128 µg/mL | >128 µg/mL | >128 µg/mL | >128 µg/mL | >128 µg/mL | – | – | – | – | – | – | – | – |
| N#Cc1cccc(/C=N/NC(=S)N/N=C/c2cccc(C#N)c2)c1 [NCL065] | >128 µg/mL | >128 µg/mL | >128 µg/mL | >128 µg/mL | >128 µg/mL | >128 µg/mL | – | – | – | – | – | – | – | – |
| Fc1cccc(/C=N/NC(=S)N/N=C/c2cccc(F)c2)c1 [NCL066] | >128 µg/mL | >128 µg/mL | >128 µg/mL | >128 µg/mL | >128 µg/mL | >128 µg/mL | – | – | – | – | – | – | – | – |
| NC(=O)N/N=C/c1cccc(C(F)(F)F)c1 [NCL067] | >128 µg/mL | >128 µg/mL | >128 µg/mL | >128 µg/mL | >128 µg/mL | >128 µg/mL | – | – | – | – | – | – | – | – |
| C/C(=N\NC(=N)N/N=C/c1ccc(C(F)(F)F)cc1)c1ccc(Cl)cc1.Cl [NCL068] | >128 µg/mL | >128 µg/mL | >128 µg/mL | >128 µg/mL | >128 µg/mL | >128 µg/mL | – | – | – | – | – | – | – | – |
| CC(=NNC(=N)NN)c1ccc(Cl)cc1.Cl [NCL069] | 128 µg/mL | 128 µg/mL | >128 µg/mL | 128 µg/mL | 64 µg/mL | >128 µg/mL | greatest activity | greatest activity | – | – | – | – | – | – |
| S=C(N/N=C/c1cccc(Cl)c1)N/N=C/c1cccc(Cl)c1 [NCL070] | >128 µg/mL | >128 µg/mL | >128 µg/mL | >128 µg/mL | 32 µg/mL (≈ 91.1 µM) | >128 µg/mL | greatest activity | – | – | – | – | – | – | – |
| Cl.N=C(NN)NN=Cc1ccc(Cl)cc1 [NCL072] | – | – | – | – | – | – | greatest activity | greatest activity | 32 µg/mL | 64 µg/mL | >128 µg/mL | 64 µg/mL | 64 µg/mL | >128 µg/mL |
| CC(=NNC(=N)NN)c1ccc(C(F)(F)F)cc1.Cl [NCL073] | – | – | – | – | – | – | greatest activity | greatest activity | 128 µg/mL | 128 µg/mL | >128 µg/mL | 16 µg/mL | 64 µg/mL | >128 µg/mL |
| C/C(=N\NC(=N)N/N=C/c1ccc(C(F)(F)F)cc1)c1ccc(C(F)(F)F)cc1.Cl [NCL075] | – | – | – | – | – | – | – | – | >128 µg/mL | >128 µg/mL | >128 µg/mL | >128 µg/mL | >128 µg/mL | >128 µg/mL |
| Cc1ccc(C=NNC(=N)NN=Cc2ccc(Cl)cc2)cc1.Cl [NCL076] | – | – | – | – | – | – | – | – | >128 µg/mL | >128 µg/mL | >128 µg/mL | >128 µg/mL | >128 µg/mL | >128 µg/mL |
| Cl.N=C(N/N=C/c1ccc(Cl)cc1)N/N=C/c1ccc(C(F)(F)F)cc1 [NCL077] | – | – | – | – | – | – | – | – | >128 µg/mL | >128 µg/mL | >128 µg/mL | >128 µg/mL | >128 µg/mL | >128 µg/mL |

Source: US10253002B2, “Compounds and methods of treating infections” (Neoculi Pty Ltd., priority 2013, dated 2019)
